Reference: US10227323B2, “Glucosylceramide synthase inhibitors for the treatment of diseases” (BIOMARIN PHARMACEUTICAL INC., priority 2013, dated 2019)

Molecular target: T1, GCS (Canis lupus familiaris, UniProt A0A8I3MXG6)
T1 sequence (A0A8I3MXG6 1-394): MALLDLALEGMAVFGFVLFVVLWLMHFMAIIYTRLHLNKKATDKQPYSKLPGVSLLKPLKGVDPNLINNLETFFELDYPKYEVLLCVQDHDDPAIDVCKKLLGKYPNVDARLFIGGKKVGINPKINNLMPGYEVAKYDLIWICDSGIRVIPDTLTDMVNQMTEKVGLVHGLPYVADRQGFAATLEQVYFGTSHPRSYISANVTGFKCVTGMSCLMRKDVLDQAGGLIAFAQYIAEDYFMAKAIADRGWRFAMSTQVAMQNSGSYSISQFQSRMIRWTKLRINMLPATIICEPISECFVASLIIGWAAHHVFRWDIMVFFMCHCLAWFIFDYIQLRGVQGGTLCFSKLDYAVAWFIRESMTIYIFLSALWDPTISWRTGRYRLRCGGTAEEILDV
Test: Assay 1: GCS Enzymatic Assay (MDCK cell lysate, C6-NBD-Ceramide, LC/MS)
Format: biochemical, canine
Settings: Table 2; for IC50: data without asterisk, read-out: IC50 (nM) generated from Assay 1; for % inhibition generated from Assay 1: data marked by *
Outline: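 LC/MS/MS measurement of glucosylceramide and NBD-ceramide after a 1 h, 37 °C reaction with 100 μM UDP-glucose and 10 μM C6-NBD-ceramide gave IC50s or percent inhibition.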

| Compound | IC50 [nM] | % inhibition generated from Assay 1 |
| --- | --- | --- |
| Cn1ncc2ccc(-c3ccc(C(F)(F)C(=O)N[C@H](CN4CCCC4)[C@H](O)c4cc(F)c5c(c4)OCCO5)cc3)cc21 [Compound 236, 2,2-difluoro-N-((1R,2R)-1-(8-fluoro-2,3-dihydrobenzo[b][1,4]dioxin-6-yl)-1-hydroxy-3-(pyrrolidin-1-yl)propan-2-yl)-2-(4-(1-methyl-1H-indazol-6-yl)phenyl)acetamide] | < 50 | – |
| Cn1cc2ccc(-c3ccc(C(F)(F)C(=O)N[C@H](CN4CCCC4)[C@H](O)c4ccc(OC5CC5)c(Cl)c4)cc3)cc2n1 [Compound 237, N-((1R,2R)-1-(3-chloro-4-cyclopropoxyphenyl)-1-hydroxy-3-(pyrrolidin-1-yl)propan-2-yl)-2,2-difluoro-2-(4-(2-methyl-2H-indazol-6-yl)phenyl)acetamide] | < 50 | – |
| O=C(N[C@H](CN1CCCC1)[C@H](O)c1ccc(OC2CC2)c(Cl)c1)C(=O)c1cccc(N2CCCCC2)c1 [Compound 238, N-((2R)-1-(3-chloro-4-cyclopropoxyphenyl)-1-hydroxy-3-(pyrrolidin-1-yl)propan-2-yl)-2-oxo-2-(3-(piperidin-1-yl)phenyl)acetamide] | – | B* (the compound had a % inhibition of greater than or equal to about 3% but less than about 50%) |
| O=C(N[C@H](CN1CCCC1)[C@H](O)c1cc(F)c2c(c1)OCCO2)C(F)(F)c1ccc(-c2ccc(F)cc2)s1 [Compound 239, 2,2-difluoro-N-((1R,2R)-1-(8-fluoro-2,3-dihydrobenzo[b][1,4]dioxin-6-yl)-1-hydroxy-3-(pyrrolidin-1-yl)propan-2-yl)-2-(5-(4-fluorophenyl)thiophen-2-yl)acetamide] | < 50 | – |
| Cn1cc2cc(-c3ccc(C(=O)C(=O)N[C@H](CN4CCCC4)[C@H](O)c4cc(F)c5c(c4)OCCO5)cc3)ccc2n1 [Compound 240, N-((1R,2R)-1-(8-fluoro-2,3-dihydrobenzo[b][1,4]dioxin-6-yl)-1-hydroxy-3-(pyrrolidin-1-yl)propan-2-yl)-2-(4-(2-methyl-2H-indazol-5-yl)phenyl)-2-oxoacetamide] | < 50 | – |
| O=C(N[C@H](CN1CCCC1)[C@H](O)c1ccc(OC2CC2)c(Cl)c1)C(=O)c1ccc(Oc2ccc(F)cc2)cc1 [Compound 241, N-((1R,2R)-1-(3-chloro-4-cyclopropoxyphenyl)-1-hydroxy-3-(pyrrolidin-1-yl)propan-2-yl)-2-(4-(4-fluorophenoxy)phenyl)-2-oxoacetamide] | < 50 | – |
| O=C(N[C@H](CN1CCCC1)[C@H](O)c1ccc(OC2CC2)c(Cl)c1)C(=O)c1cc2ccc(Cl)cc2s1 [Compound 242, N-((1R,2R)-1-(3-chloro-4-cyclopropoxyphenyl)-1-hydroxy-3-(pyrrolidin-1-yl)propan-2-yl)-2-(6-chlorobenzo[b]thiophen-2-yl)-2-oxoacetamide] | < 50 | – |
| Cn1ncc2ccc(-c3ccc(C(=O)C(=O)N[C@H](CN4CCCC4)[C@H](O)c4ccc(OC5CC5)c(Cl)c4)cc3)cc21 [Compound 243, N-((1R,2R)-1-(3-chloro-4-cyclopropoxyphenyl)-1-hydroxy-3-(pyrrolidin-1-yl)propan-2-yl)-2-(4-(1-methyl-1H-indazol-6-yl)phenyl)-2-oxoacetamide] | < 50 | – |
| Cn1ncc2ccc(C(=O)C(=O)N[C@H](CN3CCCC3)[C@H](O)c3ccc(OC4CC4)c(Cl)c3)cc21 [Compound 244, N-((1R,2R)-1-(3-chloro-4-cyclopropoxyphenyl)-1-hydroxy-3-(pyrrolidin-1-yl)propan-2-yl)-2-(1-methyl-1H-indazol-6-yl)-2-oxoacetamide] | < 50 | – |
| Cn1ncc2ccc(C(=O)C(=O)N[C@H](CN3CCCC3)[C@H](O)c3cc(F)c4c(c3)OCCO4)cc21 [Compound 245, N-((1R,2R)-1-(8-fluoro-2,3-dihydrobenzo[b][1,4]dioxin-6-yl)-1-hydroxy-3-(pyrrolidin-1-yl)propan-2-yl)-2-(1-methyl-1H-indazol-6-yl)-2-oxoacetamide] | – | A* (the compound had a % inhibition of a percent inhibition of greater than or equal to about 50%) |
| Cn1ncc2ccc(-c3ccc(C(=O)C(=O)N[C@H](CN4CCCC4)[C@H](O)c4cc(F)c5c(c4)OCCO5)cc3)cc21 [Compound 246, N-((1R,2R)-1-(8-fluoro-2,3-dihydrobenzo[b][1,4]dioxin-6-yl)-1-hydroxy-3-(pyrrolidin-1-yl)propan-2-yl)-2-(4-(1-methyl-1H-indazol-6-yl)phenyl)-2-oxoacetamide] | < 50 | – |
| O=C(N[C@H](CN1CCCC1)[C@H](O)c1ccc(OC2CC2)c(Cl)c1)C(F)(F)c1ccc(-c2ccc(F)cc2)nc1 [Compound 247, N-((1R,2R)-1-(3-chloro-4-cyclopropoxyphenyl)-1-hydroxy-3-(pyrrolidin-1-yl)propan-2-yl)-2,2-difluoro-2-(6-(4-fluorophenyl)pyridin-3-yl)acetamide] | – | A* (the compound had a % inhibition of a percent inhibition of greater than or equal to about 50%) |
| O=C(N[C@H](CN1CCC1)[C@H](O)c1cc(F)c2c(c1)OCCO2)C(=O)c1cccc(Oc2ccc(F)cc2)c1 [Compound 248, N-((1R,2R)-3-(azetidin-1-yl)-1-(8-fluoro-2,3-dihydrobenzo[b][1,4]dioxin-6-yl)-1-hydroxypropan-2-yl)-2-(3-(4-fluorophenoxy)phenyl)-2-oxoacetamide] | < 50 | – |
| O=C(N[C@H](CN1CCCC1)[C@H](O)c1ccc(OC2CC2)c(Cl)c1)C(=O)c1cccc(Oc2ccc(F)cc2)c1 [Compound 249, N-((1R,2R)-1-(3-chloro-4-cyclopropoxyphenyl)-1-hydroxy-3-(pyrrolidin-1-yl)propan-2-yl)-2-(3-(4-fluorophenoxy)phenyl)-2-oxoacetamide] | < 50 | – |
| O=C(N[C@H](CN1CCCC1)[C@H](O)c1cc(F)c2c(c1)OCCO2)C(=O)c1cccc(-c2ccc(F)cc2)c1 [Compound 250, N-((1R,2R)-1-(8-fluoro-2,3-dihydrobenzo[b][1,4]dioxin-6-yl)-1-hydroxy-3-(pyrrolidin-1-yl)propan-2-yl)-2-(4′-fluoro-[1,1′-biphenyl]-3-yl)-2-oxoacetamide] | < 50 | – |
| O=C(N[C@H](CN1CCCC1)[C@H](O)c1ccc(OC2CC2)c(Cl)c1)C(=O)c1cccc(-c2ccc(F)cc2)c1 [Compound 251, N-((1R,2R)-1-(3-chloro-4-cyclopropoxyphenyl)-1-hydroxy-3-(pyrrolidin-1-yl)propan-2-yl)-2-(4′-fluoro-[1,1′-biphenyl]-3-yl)-2-oxoacetamide] | < 50 | – |
| O=C(N[C@H](CN1CCCC1)[C@H](O)c1ccc2c(c1)OCCO2)C(=O)N1CCN(c2ccc(F)cc2)CC1 [Compound 252, N-((1R,2R)-1-(2,3-dihydrobenzo[b][1,4]dioxin-6-yl)-1-hydroxy-3-(pyrrolidin-1-yl)propan-2-yl)-2-(4-(4-fluorophenyl)piperazin-1-yl)-2-oxoacetamide] | – | A* (the compound had a % inhibition of a percent inhibition of greater than or equal to about 50%) |
| O=C(N[C@H](CN1CCC1)[C@H](O)c1ccc(OC2CC2)c(Cl)c1)C(=O)c1ccc(-c2ccc(F)cc2)cc1 [Compound 253, N-((1R,2R)-3-(azetidin-1-yl)-1-(3-chloro-4-cyclopropoxyphenyl)-1-hydroxypropan-2-yl)-2-(4′-fluoro-[1,1′-biphenyl]-4-yl)-2-oxoacetamide] | < 50 | – |
| O=C(N[C@H](CN1CCCC1)[C@H](O)c1cc(F)c2c(c1)OCCO2)C(=O)N1CCN(c2ccc(F)cc2)CC1 [Compound 254, N-((1R,2R)-1-(8-fluoro-2,3-dihydrobenzo[b][1,4]dioxin-6-yl)-1-hydroxy-3-(pyrrolidin-1-yl)propan-2-yl)-2-(4-(4-fluorophenyl)piperazin-1-yl)-2-oxoacetamide] | < 50 | – |
| CC(C)(C)c1ccc(-c2ccc(C(=O)C(=O)N[C@H](CN3CCCC3)[C@H](O)c3ccc(OC4CC4)c(Cl)c3)cc2)cc1 [Compound 255, 2-(4′-(tert-butyl)-[1,1′-biphenyl]-4-yl)-N-((1R,2R)-1-(3-chloro-4-cyclopropoxyphenyl)-1-hydroxy-3-(pyrrolidin-1-yl)propan-2-yl)-2-oxoacetamide] | < 50 | – |
| CC(C)n1ncc2ccc(-c3ccc(C(=O)C(=O)N[C@H](CN4CCCC4)[C@H](O)c4ccc(OC5CC5)c(Cl)c4)cc3)cc21 [Compound 256, N-((1R,2R)-1-(3-chloro-4-cyclopropoxyphenyl)-1-hydroxy-3-(pyrrolidin-1-yl)propan-2-yl)-2-(4-(1-isopropyl-1H-indazol-6-yl)phenyl)-2-oxoacetamide] | < 50 | – |
| CC(C)n1cc2ccc(-c3ccc(C(=O)C(=O)N[C@H](CN4CCCC4)[C@H](O)c4ccc(OC5CC5)c(Cl)c4)cc3)cc2n1 [Compound 257, N-((1R,2R)-1-(3-chloro-4-cyclopropoxyphenyl)-1-hydroxy-3-(pyrrolidin-1-yl)propan-2-yl)-2-(4-(2-isopropyl-2H-indazol-6-yl)phenyl)-2-oxoacetamide] | < 50 | – |
| O=C(N[C@H](CN1CCCC1)[C@H](O)c1cc(F)c2c(c1)OCCO2)C(=O)c1ccc(-c2ccc(Cl)s2)cc1 [Compound 360, 2-(4-(5-chlorothiophen-2-yl)phenyl)-N-((1R,2R)-1-(8-fluoro-2,3-dihydrobenzo[b][1,4]dioxin-6-yl)-1-hydroxy-3-(pyrrolidin-1-yl)propan-2-yl)-2-oxoacetamide] | < 50 | – |
